Assay results as given in patent US5326882A, “Chemiluminescent 3-(substituted Adamant-2'-Ylidene) 1,2-dioxetanes” (Tropix, Inc., priority 1992, dated 1994).

How the values were obtained:
alkaline phosphatase [1] = target: T1, alkaline phosphatase (Bos taurus, UniProt P19111); assay: Detection limits for alkaline phosphatase, Berthold LB952T (Example XXII); assay type: biochemical; details: twice background
Description: The detection means for alkaline phosphatase with different chemiluminescent 1,2-dioxetane substrates were determined as follows: Duplicates of serial dilutions (1 to 3) of alkaline phosphates were incubated at room temperature with 0.4 mM dioxetane in 0.1 M diethanolamine, 1 mM MgCl2, pH 10.0, containing 1 mg/ml of either of the polymeric enhancers Enhancer 1 or Enhancer 2, in […].
Following either a 5 or a 20 minute incubation with a substrate, the chemiluminescence intensity was measured as a 5 second integrated Relative Light Units (RLU) and plotted as in FIG. 10. […] The alkaline phosphatase concentrations at twice background were used as the detection limits in Table 5.

alkaline phosphatase [2] = target: T1, alkaline phosphatase; assay: Chemiluminescent signal-to-noise levels with enhancers (Example XXIV); assay type: biochemical
Description: The chemiluminescent signal to noise levels were obtained with 2.83×10^-13 M alkaline phosphatase and various R-substituted adamantyl 1,2-dioxetane phosphates in the presence of several enhancers. All measurements were performed in a Berthold LB952T luminometer at room temperature. First, the background chemiluminescence levels (signal in the absence of the enzyme) of each sample (in triplicate) were measured. Each sample consisted of 0.2 μmoles of dioxetane in 0.45 ml of 0.1 M diethanolamine, 1 mM MgCl2, pH 10.0, without or with 1 mg/ml of the indicated enhancer. Tubes were inserted into the luminometer and the luminescence intensity was measured. Next, the tubes were removed from the luminometer and alkaline phosphatase (50 μl containing 1.415×10^-16 moles) was added to each tube, and the luminescence intensity was measured at 5 and 20 minutes after substrate addition. The final concentration of dioxetane in each tube was 0.4 mM.
All enhancers used at 1 mg/ml in 0.1 M DEA, pH 10. Alkaline phosphatase concentration=2.83×10^-13 M. Measurements performed in a Berthold LB952T Luminometer.

[3] = target: T2, avidin-alkaline phosphatase conjugate (Bos taurus, UniProt P19111); assay: Dot blot of biotinylated pBr 322 35-mer on nylon membrane, instant film (Example XIV); details: 0.25 mM, pH 10, nylon membrane, FIG. 11
T2 construct: purchased Sigma, Inc., St. Louis, Mo
T2 sequence (P19111 20-506 limits assumed): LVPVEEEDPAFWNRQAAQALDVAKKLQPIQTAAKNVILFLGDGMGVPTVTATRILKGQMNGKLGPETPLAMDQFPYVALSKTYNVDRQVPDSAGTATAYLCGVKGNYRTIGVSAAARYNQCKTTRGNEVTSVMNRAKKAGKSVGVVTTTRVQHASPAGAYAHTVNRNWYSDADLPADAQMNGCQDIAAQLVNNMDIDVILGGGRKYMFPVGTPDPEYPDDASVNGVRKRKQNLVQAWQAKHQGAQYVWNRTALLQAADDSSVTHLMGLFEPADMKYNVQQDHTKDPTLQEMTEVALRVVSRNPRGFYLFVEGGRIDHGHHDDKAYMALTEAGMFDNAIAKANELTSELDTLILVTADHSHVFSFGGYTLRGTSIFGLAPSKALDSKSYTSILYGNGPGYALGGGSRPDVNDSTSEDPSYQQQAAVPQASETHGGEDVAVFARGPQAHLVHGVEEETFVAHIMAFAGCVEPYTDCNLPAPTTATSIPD
T2 sequence (P02701 25-152 partner): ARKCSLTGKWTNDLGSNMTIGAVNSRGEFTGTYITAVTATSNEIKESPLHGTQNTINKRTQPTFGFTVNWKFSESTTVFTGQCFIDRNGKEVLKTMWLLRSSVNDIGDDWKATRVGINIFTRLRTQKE
Description: A strip of neutral BIODYNE A nylon membrane (Pall Corporation, Glen Cove, N.Y.) was dotted twice (side-by-side) with the following concentrations of biotinylated pBr 322 35-mer oligonucleotide probe (Synthetic Genetics, San Diego, Calif.):
Next, the membrane was blocked in 0.2% casein/0.1% Tween 20 detergent in aqueous phosphate buffered saline solution (PBS) for 1 hour, following which 1/5000 diluted avidin-alkaline phosphatase conjugate (Sigma, Inc., St. Louis, Mo.) in 0.2% casein in PBS was added. The membrane was then incubated for 30 minutes, washed twice (for 5 minutes each time) in 0.2% casein/0.1% Tween 20 detergent in PBS, washed four times (for 5 minutes each time) in 0.3% Tween 20 detergent in PBS, and twice (for 5 minutes each time) in aqueous 0.1M diethanolamine containing 1 mM magnesium chloride, pH 10.0.
The membrane was then cut up the middle to give two strips, each bearing one set of dots. One of the strips was incubated for 5 minutes in aqueous AMPPD solution (0.25 mM in 0.1M diethanolamine containing 1 mM magnesium chloride, pH 10), the other for 5 minutes in the corresponding chloroadamant-2'-ylidene compound (0.25 mM in the same buffer). The two strips were then placed in camera luminometers and exposed on Polaroid Type 612 instant black and white film.

[4] = system: alkaline phosphatase ("AP"); details: cited from earlier work
[5] = enhancer NONE, 5 min, alkaline phosphatase 2.83×10^-13 M

T1 sequence (P19111 20-506 limits assumed): as the sequence (P19111 20-506 limits assumed) above

Row | SMILES | Detection limit for alkaline phosphatase (alkaline phosphatase [1]; ENHANCER 1, 5 MIN) [femtomoles/liter] | Detection limit for alkaline phosphatase (alkaline phosphatase [1]; ENHANCER 1, 20 MIN) [femtomoles/liter] | Detection limit for alkaline phosphatase (alkaline phosphatase [1]; ENHANCER 2, 5 MIN) [femtomoles/liter] | Detection limit for alkaline phosphatase (alkaline phosphatase [1]; ENHANCER 2, 20 MIN) [femtomoles/liter] | chemiluminescent signal-to-noise level (alkaline phosphatase [2]; EMERALD 1 1 mg/ml, 5 min) | chemiluminescent signal-to-noise level (alkaline phosphatase [2]; EMERALD 1 1 mg/ml, 20 min) | chemiluminescent signal-to-noise level (alkaline phosphatase [2]; EMERALD 2 1 mg/ml, 5 min) | chemiluminescent signal-to-noise level (alkaline phosphatase [2]; EMERALD 2 1 mg/ml, 20 min) | chemiluminescent signal-to-noise level (alkaline phosphatase [2]; SAPPHIRE 1 1 mg/ml, 5 min) | chemiluminescent signal-to-noise level (alkaline phosphatase [2]; SAPPHIRE 1 1 mg/ml, 20 min) | chemiluminescent signal-to-noise level (alkaline phosphatase [2]; SAPPHIRE 2 1 mg/ml, 5 min) | chemiluminescent signal-to-noise level (alkaline phosphatase [2]; SAPPHIRE 2 1 mg/ml, 20 min) | chemiluminescent signal-to-noise level (alkaline phosphatase [2]; [5]) | chemiluminescent signal-to-noise level (alkaline phosphatase [2]; enhancer NONE, 20 min) | chemiluminescence intensity as compared to AMPPD [3] | moles whose phosphoryloxy group is cleaved by a single mole of alkaline phosphatase per second [4]
1 | COC1(c2cccc(OP(=O)(O)O)c2)OOC12C1CC3CC2CC(Cl)(C3)C1 (stereo not drawn) [Cl-AMPPD, disodium 3-(4-methoxyspiro-[1,2-dioxetane-3,2'-(5'-chloro)tricyclo[3.3.1.1^3,7]decan]-4-yl) phenyl phosphate] | 1.0 | 0.6 | 0.8 | 0.4 | 583 | 964 | 839 | 1280 | 577 | 827 | 1319 | 2221 | 82 | 98 | improved chemiluminescence intensity | 
2 | COC1(c2cccc(OP(=O)(O)O)c2)OOC12C1CC3CC(C1)CC2C3 (stereo not drawn) [AMPPD, 3-(4-methoxyspiro[1,2-dioxetane-3,2'-triyclo[3.3.1.1^3,7]decan]-4-yl)phenyl phosphate, reference compound] | 4.0 | 1.4 | 3.5 | 1.1 | 109 | 282 | 113 | 291 | 159 | 364 | 192 | 434 | 21 | 34 |  | 1,000-5,000 moles per second
